# Results from PubChem BioAssay (NCI).
#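 Interpolation was linear, between the two tested concentrations surrounding the appropriate level; five concentrations were tested over 48 hours in 96-well plates. TGI: total growth inhibition.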
# Columns and labels:
# Assay in all cases: DTP human tumour cell line panel, 48 h
# NCI-H23 lung = system: NCI-H23 lung
# UO-31 renal = system: UO-31 renal
# PC-3 prostate = system: PC-3 prostate
# U251 CNS = system: U251 CNS
# MOLT-4 leukemia = system: MOLT-4 leukemia
# A498 renal = system: A498 renal
# MDA-MB-435 = system: MDA-MB-435
# SNB-75 CNS = system: SNB-75 CNS
# OVCAR-5 ovarian = system: OVCAR-5 ovarian
# NCI-H460 lung = system: NCI-H460 lung
# K-562 leukemia = system: K-562 leukemia
# SNB-19 CNS = system: SNB-19 CNS
# MCF7 breast = system: MCF7 breast
SMILES,TGI (NCI-H23 lung) [µM],TGI (UO-31 renal) [µM],TGI (PC-3 prostate) [µM],TGI (U251 CNS) [µM],TGI (MOLT-4 leukemia) [µM],TGI (A498 renal) [µM],TGI (MDA-MB-435) [µM],TGI (SNB-75 CNS) [µM],TGI (OVCAR-5 ovarian) [µM],TGI (NCI-H460 lung) [µM],TGI (K-562 leukemia) [µM],TGI (SNB-19 CNS) [µM],TGI (MCF7 breast) [µM]
COC(=O)C1SC[C@H]2C(=O)N(c3ccccc3)C(=O)N12 (stereo partly specified),> 100,> 100,> 100,> 100,> 100,> 100,> 100,> 100,> 100,> 100,> 100,> 100,> 100
Cc1ccc(NC(=S)N=Nc2c(O)[nH]c3ccccc23)cc1,> 100,> 100,> 100,> 100,> 100,> 100,> 100,> 100,> 100,> 100,> 100,> 100,> 100
C=C(C)C1CC2=C(O1)C(=O)c1cccc(O)c1C2=O (stereo unspecified),0.935,2.84,3.67,3.01,0.422,10.2,0.271,3.87,3.01,3.75,0.689,3.11,1.96
NC(Cc1ccc(O)cn1)C(=O)O (stereo unspecified),> 100,> 100,> 100,> 100,> 100,> 100,> 100,> 100,> 100,> 100,> 100,> 100,> 100
COc1cc(OC2OC(CO)C(O)C(O)C2O)c2c(c1)O[C@@H]1[C@H](O)Oc3cc(OC)c(OC)cc3[C@]1(O)C2=O (stereo partly specified),> 25,> 25,> 25,> 25,> 25,> 25,> 25,> 25,> 25,> 25,> 25,> 25,> 25
COc1cc(C(=O)N(C(=S)OC23CC4CC(CC(C4)C2)C3)c2ccccc2)cc(OC)c1OC,> 100,79,> 100,53,21.8,92.5,> 100,> 100,> 100,> 100,> 100,> 100,> 100
C[C@H]1[C@H](C)CC[C@]2(C(=O)OC3OC(CO)C(O)C(O)C3O)CC[C@]3(C)C(=CC[C@@H]4[C@@]5(C)C[C@@H](O)[C@@H]6OC(=O)c7cc(O)c(O)c(O)c7-c7c(cc(O)c(O)c7O)C(=O)OC[C@]6(CO)[C@@H]5CC[C@]43C)[C@H]12 (stereo partly specified),> 100,> 100,> 100,34.7,66.9,> 100,32.9,> 100,> 100,> 100,> 100,> 77.9,21.8
Brc1ccc(C2CC3(c4ccccc4)ON=C(c4ccccc4)N3c3ccccc3S2)cc1 (stereo unspecified),> 100,> 100,> 100,> 100,> 100,> 100,> 100,> 100,> 100,> 100,> 100,> 100,> 100
COC(=O)/C=C/c1cnc2c(c1)oc(=O)n2C,> 100,> 100,> 100,> 100,> 100,> 100,> 100,> 100,> 100,> 100,> 100,> 100,> 100
COC(=O)C1(Cc2ccc(C)cc2)Cc2c(C)cccc2C1=O (stereo unspecified),> 100,> 100,42,66.5,> 100,41.8,13.2,> 100,> 100,39.2,> 100,90.3,28.4
OC1(C2(c3ccc(Cl)cc3)CCCC2)c2ccccc2C2=NCCN21 (stereo unspecified),36.1,24.1,25.1,28.2,32.2,29.4,26.7,12.7,29.5,29,20.4,30.5,32.7
O=C1CSC(c2cccc(Oc3ccccc3)c2)N1c1cccc(Cl)c1Cl (stereo unspecified),91.4,> 100,95.3,39.1,55.7,93.5,56.1,> 100,> 100,71.5,63.9,> 100,32.8
